Reference: paper PMC12706144, “Potential Antidiabetic Inhibitors and Antimicrobials from the Fungus Fusarium lichenicola Isolated from the Cicada Cryptotympana mandarina Distant, 1891” (Journal of Microbiology and Biotechnology, 2025)

What was measured:
[1] = system: Gram-positive and Gram-negative bacteria and fungi; settings: cited from earlier work
[2] = system: S. aureus, B. subtilis, E. coli, and Klebsiella pneumoniae; settings: cited from earlier work
[3] = system: S. aureus, B. subtilis, E. coli, S. cerevisiae; settings: cited from earlier work
[4] = system: various bacterial pathogens; parameters: method as in PMID 34394014; settings: cited from earlier work
α-glucosidase = α-glucosidase (Saccharomyces cerevisiae, UniProt P53341); type: biochemical; settings: Table 4, reference compounds, independent experiment; read-out: IC50, α-Glucosidase inhibition
α-glucosidase, sequence (P53341 whole entry, looked up): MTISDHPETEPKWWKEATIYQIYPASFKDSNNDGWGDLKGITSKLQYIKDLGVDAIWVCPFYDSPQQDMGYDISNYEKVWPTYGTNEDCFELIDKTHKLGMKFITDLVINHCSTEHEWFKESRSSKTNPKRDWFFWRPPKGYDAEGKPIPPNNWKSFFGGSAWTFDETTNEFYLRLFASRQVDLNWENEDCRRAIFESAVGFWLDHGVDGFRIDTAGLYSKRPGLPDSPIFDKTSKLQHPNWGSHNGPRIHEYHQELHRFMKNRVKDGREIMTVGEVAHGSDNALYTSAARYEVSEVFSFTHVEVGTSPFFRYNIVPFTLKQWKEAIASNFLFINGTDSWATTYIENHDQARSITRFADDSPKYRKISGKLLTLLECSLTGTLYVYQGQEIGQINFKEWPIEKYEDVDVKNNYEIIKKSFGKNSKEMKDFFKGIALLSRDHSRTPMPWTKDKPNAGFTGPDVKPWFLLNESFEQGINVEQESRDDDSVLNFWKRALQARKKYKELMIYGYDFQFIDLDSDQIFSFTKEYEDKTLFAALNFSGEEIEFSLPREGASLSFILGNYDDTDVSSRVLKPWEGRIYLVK

α-amylase = biological target: T1, α-amylase (Sus scrofa, UniProt P00690); test: α-Amylase inhibitory assay (starch azure); type: biochemical; settings: Table 4, reference compounds, independent experiment; read-out: IC50, α-Amylase inhibition
T1 sequence (P00690 16-511): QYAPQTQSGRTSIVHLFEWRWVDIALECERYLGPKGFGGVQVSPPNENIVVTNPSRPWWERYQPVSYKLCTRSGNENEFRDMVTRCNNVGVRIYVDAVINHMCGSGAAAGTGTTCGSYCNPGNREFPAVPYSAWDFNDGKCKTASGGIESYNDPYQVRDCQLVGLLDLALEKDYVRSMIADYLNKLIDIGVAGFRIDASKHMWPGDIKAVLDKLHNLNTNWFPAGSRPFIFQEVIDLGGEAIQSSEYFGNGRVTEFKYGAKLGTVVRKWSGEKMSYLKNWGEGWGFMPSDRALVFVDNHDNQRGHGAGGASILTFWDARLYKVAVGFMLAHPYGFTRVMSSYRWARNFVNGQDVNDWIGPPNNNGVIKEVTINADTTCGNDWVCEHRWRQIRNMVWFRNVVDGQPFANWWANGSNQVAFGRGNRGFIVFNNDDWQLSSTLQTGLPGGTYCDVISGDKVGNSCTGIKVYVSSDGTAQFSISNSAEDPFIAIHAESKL

## CCCCCC/C=C\CCCCCCCC(=O)O [C22, Palmitoleic acid]
[1]
  antimicrobial activity: antimicrobial activity

## CCCCCCCCCCCCCCCC(=O)O [C21, n-Hexadecanoic acid]
[2]
  antibacterial effects: good antibacterial effects

## C=C(C)C1CC=C(C)CC1 (stereo not drawn) [C4, 4-Isopropenyl-1-methylcyclohexene]
[3]
  MICs: 0.5 to 1.0 µg/mL

## CSSSC [C11, Dimethyltrisulfane]
[4]
  antimicrobial activity: promising antimicrobial activity
α-glucosidase
  IC50: 462 ± 44 µM
α-amylase
  IC50: 332 ± 23 µM
